Assay [1] relates to TNF-alpha. Description: LPS-evoked immunogenic inflammation, TNF-alpha levels in monocyte/macrophage culture (Example I/1). Format: cell-based. Conditions: RAW 264,7 culture, control 0%. The procedure: The purpose of this experimental model was to measure inhibitory influence of omega 3 fatty acids, vitamin E and CoQ10 separately and in combination, using methods disclosed in literature (J. Surg Res. 2002 September; 107(1):135-139). For evoking inflammation bacterial endotoxin (LPS) was used and changes in levels of a proinflammatory cytokin, TNF-alpha were measured in a monocyte/macrophage (RAW 264,7) culture. It is clear that both combinations show inhibition of inflammation, the 3 member combination a considerably higher one.

In assay [2] the test system is neurogenic inflammation evoked by capsaicin. As to the kind of experiment: Capsaicin-evoked neurogenic inflammation in newborn rats (Example I/2). In kind it is in vivo, Sprague Dawley rats. The procedure: Neurogenic inflammation was evoked in newborn ([…]) Sprague Dawley rats by intraperitoneal administration of capsaicin (50 mg/kg of body mass) as described in the literature (Acta Physiol. Hung. 1987; 69(3-4):323-32). Twenty-four hours before capsaicin injection 10 ml intravenous infusions each of CoQ10, or omega 3+vitamin E, or omega 3+vitamin E+CoQ10 were applied. Each of these combinations contained 1.0 g omega 3, 10 mg vitamin E and 10 mg CoQ10. […] Hypotensive shock and subsequent death were prevented by pre-treatment with omega 3+vitamin E in 26% and in the omega 3+vitamin E+CoQ10 in 64%, while in the control group only 22% survived. […] Six weeks after the capsaicin injection, corneal transparency and sensitivity returned to normal in the pre-treated groups, while in the control group reduced transparency and sensitivity were observed.

Assay [3] deals with retinal pigment epithelial (RPE) cells. Description: Retinal cell culture, growth and differentiation of RPE cells (Example I/6). Format: cell-based, Wistar rats. To be noted: 7 day stage, morphometric analysis, control 0%. The procedure: The aim of this study was to reveal the influence of omega 3 fatty acids, Vitamin E, CoQ10 and LB separately or in combination on the development and differentiation of retinal cells in culture (in vitro). Retinas of newborn (1-2 days) Wistar rats were isolated. and cultured as described in our previous paper (Int. J. Dev. Neurosc. 1998 August; 16(5):423-32). In six different combinations, the culture medium contained 10 g omega 3 fatty acids, 100 mg vitamin E, 100 mg CoQ10 and 0.05 microgram LB per 100 ml. At the 7 day stage size and differentiation of retinal pigment epithelial (RPE) cells were determined by morphometric analysis, as described in the cited work.

Turning to `CC(=O)Oc1ccccc1C(=O)O` [aspirin], the “Decrease in proinflammatory cytokine levels in immunogenic inflammation: TNF-alpha” value in assay [1] is listed as −21%.
In the case of `COC1=C(OC)C(=O)C(C/C=C(\C)CC/C=C(\C)CC/C=C(\C)CC/C=C(\C)CC/C=C(\C)CC/C=C(\C)CC/C=C(\C)CC/C=C(\C)CC/C=C(\C)CCC=C(C)C)=C(C)C1=O` [CoQ10, ubiquinone 10], in assay [2] (10 ml i.v. infusion 24 hours before capsaicin 50 mg/kg i.p., control 22%), the “Neurogenic inflammation, acute features (survival; hypotensive shock and subsequent death prevented)” value stood at 22%. The “Neurogenic inflammation, chronic features” value in assay [2] (10 ml i.v. infusion 24 hours before capsaicin, six weeks after capsaicin, control 20%) is on record as 25%. In assay [3], the RPE differentiation was 3% and the RPE growth was 1%. For the same compound, the “Decrease in proinflammatory cytokine levels in immunogenic inflammation: TNF-alpha” value in assay [1] was −3%.
